Experiments:
[1] = system: PD1-ss+10aa/Gaussia Luciferase; assay: Dox-Induced PD1-ss-Gluc Assay; assay type: cell-based; details: 24 hr Dox induction; 293FRT/TO cells; read-out: 24 hr Dox Inducible PD1ssGluc 293FRT/TO: Mean IC50
Method in brief: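 The cell line was made by transfecting Flp-In 293 T-REx cells with a PD1 signal sequence+10aa–Gaussia luciferase fusion under T-REx control and selecting with hygromycin and blasticidin. Cells were seeded, and next day compound plus doxycycline was added at 37 °C, 5% CO2.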

[2] = system: TNFα-FL/Gaussia Luciferase; assay: Dox Induced TNFα-FL-Gluc Assay; assay type: cell-based; details: for IC50: 24 hr Dox induction, 293FRT/TO cells, read-out: 24 hr Dox Inducible TNFaFLGluc 293FRT/TO: Mean IC50; for 24 hr Dox Inducible TNFaFLGluc 293FRT/TO: TNF/PD1: ratio of TNFaFLGluc IC50 to PD1ssGluc IC50
Method in brief: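 Flp-In 293 T-REx cells stably expressing full-length TNFα (aa 1-233) fused at its C-terminus to Gaussia luciferase under tetracycline-regulated control were plated the day before assay. Compound dilutions in DMSO/media containing doxycycline were added and incubated at 37 °C, 5% CO2. Unspecified stereochemistry denotes stereoisomer mixtures.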

[3] = system: HER3-ss+4aa/Gaussia Luciferase; assay: Dox-Induced Her3-ss-Gluc Assay; assay type: cell-based; details: 24 hr Dox induction; 293FRT/TO cells; read-out: 24 hr Dox Inducible Her3(ss + 4)Gluc 293FRT/TO: Mean IC50
Method in brief: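 Stable Flp-In 293 T-REx line expressing Gaussia luciferase fused to the HER3 signal sequence plus 4 amino acids under tetracycline-regulated (T-REx) control. Cells plated the day before, then treated with compound dilutions in DMSO/media containing doxycycline and incubated at 37° C., 5% CO2.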

[4] = system: IL-2-FL/Gaussia Luciferase; assay: Dox Induced IL2-FL-Gluc Assay; assay type: cell-based; details: for IC50: 24 hr Dox induction, 293FRT/TO cells, read-out: 24 hr Dox Inducible IL2FLGluc 293FRT/TO: Mean IC50; for 24 hr Dox Inducible IL2FLGluc 293FRT/TO: IL2/PD1: ratio of IL2FLGluc IC50 to PD1ssGluc IC50
Method in brief: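 Flp-In 293 T-REx cells stably carrying doxycycline-inducible full-length IL-2 (aa 1-153) fused at its C-terminus to Gaussia luciferase, selected with hygromycin and blasticidin. Cells were plated the day before, then treated with compounds in DMSO/media containing doxycycline at 37° C, 5% CO2.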

[5] = system: multiple myeloma cell line NCI-H929; assay: H929 Cell Viability Assay; assay type: cell-based, human; details: Homo sapiens, NCI-H929, 48 h, NCI-H929 cells, Celltiter-Glo
Method in brief: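 NCI-H929 cells, resuspended in RPMI 1640 with 10% FBS and 2 mM glutamine, were treated with compound dilutions in DMSO/media and incubated 48 hours at 37° C, 5% CO2. Viability was read by CellTiter-Glo luminescence. Compounds drawn without stereochemistry were tested as stereoisomer mixtures.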

[6] = system: multiple myeloma cell line U266B1; assay: U266 Cell Viability Assay; assay type: cell-based, human; details: Homo sapiens, U-266, 48 h, U266B1 cells, Celltiter-Glo
Method in brief: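 Cells grown in RPMI 1640 with 10% FBS, 2 mM glutamine and penicillin/streptomycin were exposed to compound dilutions in DMSO/media for 48 hours at 37° C., 5% CO2. Viability was read by CellTiter-Glo luminescence. Undefined stereocentres mean data for stereoisomer mixtures.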

[7] = Liver Microsome Stability Assay (rat); details: rat liver microsomes, with NADPH, 1.0 uM compound
Procedure: (§1) Stability of a compound was assessed in the presence of liver microsomes from various sources—mouse, rat, monkey and human liver microsomes. 1.0 uM compound, 0.4% DMSO in 0.1 M Potassium Phosphate with 1.0 mg/mL liver microsomes, were incubated at 37° C. with or without 1 mM NADPH. The samples were quenched at 0, and 30 minutes.

[8] = Liver Microsome Stability Assay (mouse); details: mouse liver microsomes, with NADPH, 1.0 uM compound
Procedure: as §1

[9] = Liver Microsome Stability Assay (human); details: human liver microsomes, with NADPH, 1.0 uM compound
Procedure: as §1

[10] = Liver Microsome Stability Assay (monkey); details: monkey liver microsomes, with NADPH, 1.0 uM compound
Procedure: as §1

SMILES	IC50 [1] [µM]	IC50 [2] [µM]	24 hr Dox Inducible TNFaFLGluc 293FRT/TO: TNF/PD1 [2]	IC50 [3] [µM]	IC50 [4] [µM]	24 hr Dox Inducible IL2FLGluc 293FRT/TO: IL2/PD1 [4]	EC50 [5] [µM]	EC50 [6] [µM]	Liver Microsome Stability (Multiple Species): Rat - % Remaining after 30 min w/NADPH [7] [%]	Liver Microsome Stability (Multiple Species): Mouse - % Remaining after 30 min w/NADPH [8] [%]	Liver Microsome Stability (Multiple Species): Human - % Remaining after 30 min w/NADPH [9] [%]	Liver Microsome Stability (Multiple Species): Monkey - % Remaining after 30 min w/NADPH [10] [%]
O=C(Nc1nc(/C=C/C2CN(S(=O)(=O)c3ccccc3)CCO2)cs1)c1cccn1Cc1ccncc1 (stereo not drawn) [Compound B9, (E)-N-(4-(2-(4-(phenylsulfonyl)morpholin-2-yl)vinyl)thiazol-2-yl)-1-(pyridin-4-ylmethyl)-1H-pyrrole-2-carboxamide]	0.91	> 25	>27.5	1.61	1.85	2	15.2	10.4	3.44	0.31	0.41	0.17
CC(=O)N1CCOC(/C=C/c2csc(NC(=O)c3cccn3Cc3ccncc3)n2)C1 (stereo not drawn) [Compound B10, (E)-N-(4-(2-(4-acetylmorpholin-2-yl)vinyl)thiazol-2-yl)-1-(pyridin-4-ylmethyl)-1H-pyrrole-2-carboxamide]	20	> 25	>1.25	> 25	> 25	1.3	> 25	> 25	2.71	9.22	1.05	0.1
O=C1NC(/C=C/c2csc(NC(=O)c3cccn3Cc3ccncc3)n2)CO1 (stereo not drawn) [Compound B12]	> 25	> 25	<=>1.00	> 25	> 25	1	> 25	> 25	11	1.41	3.28	4.16
O=C1CCCC(/C=C/c2csc(NC(=O)c3cccn3Cc3ccncc3)n2)N1 (stereo not drawn) [Compound B13, (E)-N-(4-(2-(6-oxopiperidin-2-yl)vinyl)thiazol-2-yl)-1-(pyridin-4-ylmethyl)-1H-pyrrole-2-carboxamide]	> 25	> 25	<=>1.00	> 25	> 25	1	> 25	> 25	6.37	4.96	0.48	0.6
O=C(Nc1nc(/C=C/C2CN(c3ccccc3)CCO2)cs1)c1cccn1Cc1ccncc1 (stereo not drawn) [Compound B18, (E)-N-(4-(2-(4-phenylmorpholin-2-yl)vinyl)thiazol-2-yl)-1-(pyridin-4-ylmethyl)-1H-pyrrole-2-carboxamide]	0.0882	4.7	53.3	1.1	1.56	18	> 25	> 25	2.09	3.02	0.82	0.38
Cc1ocnc1/C=C/c1csc(NC(=O)c2cccn2Cc2ccncc2)n1 [Compound B33, (E)-N-(4-(2-(5-methyloxazol-4-yl)vinyl)thiazol-2-yl)-1-(pyridin-4-ylmethyl)-1H-pyrrole-2-carboxamide]	0.0637	> 25	>392	5.56	9.19	140	24.1	> 25	0.28	4.32	0.68	1.26
O=C(Nc1nc(/C=C/c2ncco2)cs1)c1cccn1Cc1ccncc1 [Compound B34, (E)-N-(4-(2-(oxazol-2-yl)vinyl)thiazol-2-yl)-1-(pyridin-4-ylmethyl)-1H-pyrrole-2-carboxamide]	0.778	> 25	>32.1	> 25	> 25	>32	> 25	> 25	0.87	0.97	0.75	1.77
Cc1cnc(/C=C/c2csc(NC(=O)c3cccn3Cc3ccncc3)n2)o1 [Compound B35, (E)-N-(4-(2-(5-methyloxazol-2-yl)vinyl)thiazol-2-yl)-1-(pyridin-4-ylmethyl)-1H-pyrrole-2-carboxamide]	0.466	> 25	>53.7	> 25	> 25	>54	> 25	> 25	0.46	2.61	2.88	1.04

Source: patent US20230286973A1, “PROTEIN SECRETION INHIBITORS” (KEZAR LIFE SCIENCES, priority 2020, published 2023)
